Test results taken from patent US20230202975A1 (Recordati Industria Chimica e Farmaceutica S.p.A., priority 2021, published 2023).

Key:
Format in all cases: physicochemical
[1] = Particle size distribution (laser particle size analyser, Ph. Eur. 2.9.31)
Procedure: Particle size distribution was evaluated in line with European Pharmacopeia 2.9.31 with the instrument and according to sample preparation and test conditions reported in the following Table 3: […]

[2] = pH of aqueous solution (potentiometric); settings: 100 mg of sample dissolved in 10 ml of water
Procedure: Keys: ^1 pH was determined potentiometncally on a solution of 100 mg of sample dissolved in 10 ml of water; HPLC purity is expressed as area percentage (area of the peak/total area×100); DMT: 2,2-dimethylthiazolidine.

[3] = Bulk density and tapped density (Ph. Eur. 2.9.34), Hausner ratio; settings: average of three samples, after drying under vacuum
Procedure: Bulk density and Tapped density: were measured according to the method of pharmacopoeia (Ph. Eur. 2.9.34). 100 g of sample was weighed and then placed in the test tube, noting the apparent volume without any type of treatment to the sample. Afterwards, 10, 500 and 1250 taps are made using the automatic volumeter (Model: Schleuniger JV2000, Equipment code: CE9), noting the apparent volumes obtained in these three tests. In the event that the difference between the volume obtained for the 500 and 1250 taps was greater than 2 ml, the operation was repeated in increments of 1250 taps until the difference within measurements is less than or equal to 2 ml. For each batch the test was carried out in duplicate.
The bulk density and tapped density were calculated according to the following equations: […]
where m is the amount of sample weighed expressed in grams and V0 is the apparent uncompacted volume expressed in milliliters. Tapped density:
Another parameter relevant for evaluating powder flowability is the Hausner ratio namely the ratio between tapped and bulk densities. Generally, a Hausner ratio of higher than 1.50 indicates a very poor flowability (Powder properties in food production systems, Handbook of Food Powders, Ed.: Bhesh Bhandari, Nidhi Bansal, Min Zhang, Pierre Schuck, Woodhead Publishing, 2013, chapter 12, page 298).

For `NCCS.O=C(O)C(O)C(O)C(=O)O` (stereo not shown) [Example C1, Cysteamine Bitartrate], the “Particle Size, compliance with specification D50 <150 mic” value [1] was roughly 65% and the “Particle Size, compliance with specification D90 <450 mic” value [1] was “(100%)”.
With `NCCS.O=C(O)C(O)C(O)C(=O)O` (stereo not shown) [Example R2, Cysteamine Bitartrate] the “Particle Size, compliance with specification D50 <150 mic” value [1] was “(100%)” and the “Particle Size, compliance with specification D90 <450 mic” value [1] was “(100%)”.
With `NCCS.O=C(O)C(O)C(O)C(=O)O` (stereo not shown) [Example C3, Cysteamine Bitartrate] the “Particle Size, compliance with specification D50 <150 mic” value [1] was roughly 53% and the “Particle Size, compliance with specification D90 <450 mic” value [1] was “(100%)”.
Cysteamine Bitartrate [Example 2] gave a pH [2] of 3.53.
For `NCCS.O=C(O)C(O)C(O)C(=O)O` (stereo not shown) [Example C2, Cysteamine Bitartrate], the “Particle Size, compliance with specification D50 <150 mic” value [1] was roughly 55% and the “Particle Size, compliance with specification D90 <450 mic” value [1] was “(100%)”.
With `NCCS.O=C(O)C(O)C(O)C(=O)O` (stereo not shown) [Example R1, Cysteamine Bitartrate] the “Particle Size, compliance with specification D50 <150 mic” value [1] was “(100%)” and the “Particle Size, compliance with specification D90 <450 mic” value [1] was “(100%)”.
For `NCCS.O=C(O)C(O)C(O)C(=O)O` (stereo not shown) [Example 10A, Cysteamine Bitartrate], the Bulk density ([3]; listed as Cysteamine Bitartrate crystallized according to the process of the present inven) was 0.301 g/mL, the Bulk density ([3]; listed as Ex. 10A) was 0.301 g/mL and the Tapped density ([3]; listed as Ex. 10A) was 0.423 g/mL.
In the case of `NCCS.O=C(O)C(O)C(O)C(=O)O` (stereo not shown) [Example R3, Cysteamine Bitartrate], the “Particle Size, compliance with specification D50 <150 mic” value [1] is reported as “(100%)” and the “Particle Size, compliance with specification D90 <450 mic” value [1] is reported as “(100%)”.
Compound `NCCS.O=C(O)C(O)C(O)C(=O)O` (stereo not shown) [Example 10B, Cysteamine Bitartrate, reference compound] has a Bulk density ([3]; listed as Cysteamine Bitartrate crystallized according to the prior art process (direct ad)) of 0.279 g/mL, a Bulk density ([3]; listed as Ex. 10B) of 0.279 g/mL and a Tapped density ([3]; listed as Ex. 10B) of 0.442 g/mL.
